Consider 30 compounds from US4644063A, “1,3-oxazolidine-2-one derivatives” (Nippon Chemiphar Co., Ltd., priority 1984, dated 1987).

The test system of data set [1] is Anemic Decerebrate Rigidity Sample (EMG, M. triceps brachii). In words: Effects on Anemic Decerebrate Rigidity Sample (suppression of EMG of forelimb muscle). It counts as in vivo, Wistar male rats. As to conditions: iv, 10 min; rat, 3 mg/kg in physiological saline through femoral vein, 10 minutes after administration; read-out: Suppression rate.
Data set [2] has as its system Glutamic Acid at Neuromuscular Junctions of Crayfish (opener muscles of the first walking legs). In words: Blocking effects against Glutamic Acid at Neuromuscular Junctions of Crayfish. Particulars: 5-minute pretreatment, L-glutamic acid 10^-4 M.
Data set [3] is described as follows: Acute Toxicity (up-and-down method). As to conditions: mouse, in vivo, iv (caudal vein), ddN male mice. How it is done: Using ddN male mice, the acute toxicity level of each test compound was determined in accordance with an up-and-down method. Some of the test compounds used were dissolved in physiological saline and administered through the caudal vein.
Data set [4] relates to neuraxial muscle relaxing effect. Description: Neuraxial muscle relaxing effect, experiment conducted by the inventors. The format is in vivo.
For data set [5] the following is noted: reported by Nikolova; cited from earlier work.
For data set [6], the system named is glutamic acid. Particulars: in higher animals; cited from earlier work.
In data set [7] the test system is higher animals. As to conditions: Oleny et al; cited from earlier work.
[8] abbreviates: test compound 2 × 10^-4 M, 200 µM.
[9] abbreviates: test compound 2 × 10^-5 M, 20 µM.

Each structure is given as a SMILES string. Structures can show the parent of a compound that is named as a salt.

With `C[C@@H]1[C@H](c2ccccc2)OC(=O)N1CCN1CCCCC1.Cl` (racemic) [Comparative compound 2, (4RS,5SR)-4-methyl-5-phenyl-3-(2-piperidinoethyl)-1,3-oxazolidine-2-one hydrochloride, reference compound], the inhibition in vivo at 3 mg/kg in data set [1] was determined as 3.6%. In addition, the “Blocking rate against glutamic acid” value in data set [2] (setting [8]) was 0%.

For `C[C@@H]1[C@@H](c2ccccc2)OC(=O)N1CCN1CCCCC1` (racemic) [Comparative compound 3, (4RS,5RS)-4-methyl-5-phenyl-3-(2-piperidinoethyl)-1,3-oxazolidine-2-one hydrochloride, reference compound], the inhibition in vivo at 3 mg/kg in data set [1] is 2.2%.

Turning to `C[C@@H]1[C@H](c2ccccc2)OC(=O)N1CCN1CCCC1.Cl` (racemic) [Comparative compound 4, (4RS,5SR)-4-methyl-5-phenyl-3-(2-pyrrolidinoethyl)-1,3-oxazolidine-2-one hydrochloride, reference compound], the inhibition in vivo at 3 mg/kg in data set [1] is 1%. For the same compound, in data set [2] (setting [8]), the “Blocking rate against glutamic acid” value was 45%.

For the compound `C[C@@H]1[C@@H](c2ccccc2)OC(=O)N1CCN1CCCC1` (racemic) [Comparative compound 5, (4RS,5RS)-4-methyl-5-phenyl-3-(2-pyrrolidinoethyl)-1,3-oxazolidine-2-one hydrochloride, reference compound], the inhibition in vivo at 3 mg/kg in data set [1] was 3%.

Regarding `CC(C)[C@@H]1[C@H](c2ccccc2)OC(=O)N1CCCN1CCCCC1` (racemic) [Compound 1, (4RS,5SR)-4-(1-methylethyl)-5-phenyl-3-(3-piperidinopropyl)-1,3-oxazolidine-2-one], in data set [1], the inhibition in vivo at 3 mg/kg was determined as 12%. For the same compound, the LD50 in data set [3] came out at 29.7 mg/kg.

Consider `CC(C)[C@@H]1[C@@H](c2ccccc2)OC(=O)N1CCCN1CCCCC1` (racemic) [Compound 2, (4RS,5RS)-4-(1-methylethyl)-5-phenyl-3-(3-piperidinopropyl)-1,3-oxazolidine-2-one], for which the inhibition in vivo at 3 mg/kg in data set [1] stood at 19.8%. The LD50 in data set [3] was determined as 18.8 mg/kg.

With `CC(C)C[C@@H]1[C@H](c2ccccc2)OC(=O)N1CCCN1CCCCC1` (racemic) [Compound 3, (4RS,5SR)-4-(2-methylpropyl)-5-phenyl-3-(3-piperidinopropyl)-1,3-oxazolidine-2-one], in data set [1], the inhibition in vivo at 3 mg/kg turned out to be 18%. In addition, in data set [2] (setting [8]), the “Blocking rate against glutamic acid” value amounted to 89%. Further, in data set [3], the LD50 was determined as 55.5 mg/kg.

Turning to `CC(C)C[C@@H]1[C@@H](c2ccccc2)OC(=O)N1CCCN1CCCCC1` (racemic) [Compound 4, (4RS,5RS)-4-(2-methylpropyl)-5-phenyl-3-(3-piperidinopropyl)-1,3-oxazolidine-2-one], the inhibition in vivo at 3 mg/kg in data set [1] was 21.2%. Moreover, the “Blocking rate against glutamic acid” value in data set [2] (setting [8]) amounted to 88%. In addition, in data set [3], the LD50 came out at 29.9 mg/kg.

Turning to `CC(C)[C@@H]1[C@@H](c2ccccc2)OC(=O)N1CCCN1CCCC1` (racemic) [Compound 10, (4RS, 5RS)-4-(1-methylethyl)-5-phenyl-3-(3-pyrrolidinopropyl)-1,3-oxazolidine-2-one], the inhibition in vivo at 3 mg/kg in data set [1] was found to be 18.7%. In data set [3], the LD50 amounted to 54.6 mg/kg.

Turning to `CC(C)C[C@@H]1[C@H](c2ccccc2)OC(=O)N1CCCN1CCCC1` (racemic) [Compound 13, (4RS,5SR)-4-(2-methylpropyl)-5-phenyl-3-(3-pyrrolidinopropyl)-1,3-oxazolidine-2-one], the “Blocking rate against glutamic acid” value in data set [2] (setting [8]) came to 80%. The compound further came in with an LD50 in data set [3] of 75.1 mg/kg.

In the case of `CC(C)C[C@@H]1[C@@H](c2ccccc2)OC(=O)N1CCCN1CCCC1` (racemic) [Compound 14, (4RS,5RS)-4-(2-methylpropyl)-5-phenyl-3-(3-pyrrolidinopropyl)-1,3-oxazolidine-2-one], the inhibition in vivo at 3 mg/kg in data set [1] was 10.2%. In addition, the LD50 in data set [3] came out at 53.2 mg/kg.

For the compound `Cc1ccc([C@@H]2OC(=O)N(CCCN3CCCCC3)[C@@H]2CC(C)C)cc1` (racemic) [Compound 25, (4RS,5SR)-5-(4-methylphenyl)-4-(2-methylpropyl)-3-(3-piperidinopropyl)-1,3-oxazolidine-2-one], the inhibition in vivo at 3 mg/kg in data set [1] was determined as 10.9%. Moreover, the LD50 in data set [3] was 34.9 mg/kg.

Consider `COc1ccc([C@@H]2OC(=O)N(CCCN3CCCCC3)[C@@H]2CC(C)C)cc1` (racemic) [Compound 27, (4RS,5SR)-5-(4-methoxyphenyl)-4-(2-methylpropyl)-3-(3-piperidinopropyl)-1,3-oxazolidine-2-one], for which the inhibition in vivo at 3 mg/kg in data set [1] stood at 8.4%. The LD50 in data set [3] is 39.8 mg/kg.

For `CC(C)C[C@@H]1[C@H](c2ccc(F)cc2)OC(=O)N1CCCN1CCCCC1` (racemic) [Compound 29, (4RS,5SR)-5-(4-fluorophenyl)-4-(2-methylpropyl)-3-(3-piperidinopropyl)-1,3-oxazolidine-2-one], in data set [1], the inhibition in vivo at 3 mg/kg was determined as 9.9%. In addition, the LD50 in data set [3] came to 66.1 mg/kg.

In the case of `CCCC[C@@H]1[C@@H](c2ccccc2)OC(=O)N1CCCN1CCCCC1` (racemic) [Compound 35, (4RS,5RS)-4-butyl-5-phenyl-3-(3-piperidinopropyl)-1,3-oxazolidine-2-one], the “Blocking rate against glutamic acid” value in data set [2] (setting [9]) is recorded as 68%.

As for `CCCC[C@@H]1[C@H](c2ccccc2)OC(=O)N1CCCN1CCCCC1` (racemic) [Compound 36, (4RS,5SR)-4-butyl-5-phenyl-3-(3-piperidinopropyl)-1,3-oxazolidine-2-one], the “Blocking rate against glutamic acid” value in data set [2] (setting [9]) was 53%.

`CCCCC[C@@H]1[C@@H](c2ccccc2)OC(=O)N1CCCN1CCCCC1` (racemic) [Compound 37, (4RS,5RS)-4-pentyl-5-phenyl-3-(3-piperidinopropyl)-1,3-oxazolidine-2-one]: in data set [2] (setting [9]), the “Blocking rate against glutamic acid” value came to 58%.

On to `CC(C)CC[C@@H]1[C@H](c2ccccc2)OC(=O)N1CCCN1CCCCC1` (racemic) [Compound 40, (4RS,5SR)-4-(3-methylbutyl)-5-phenyl-3-(3-piperidinopropyl)-1,3-oxazolidine-2-one], for which, in data set [2] (setting [9]), the “Blocking rate against glutamic acid” value was found to be 61%. Further, in data set [3], the LD50 was found to be 53.6 mg/kg.

Consider `CCCCCC[C@@H]1[C@@H](c2ccccc2)OC(=O)N1CCCN1CCCCC1` (racemic) [Compound 41, (4RS,5RS)-4-hexyl-5-phenyl-3-(3-piperidinopropyl)-1,3-oxazolidine-2-one], for which the “Blocking rate against glutamic acid” value in data set [2] (setting [9]) was found to be 69%.

As for `CC1C(c2ccccc2)OC(=O)N1CCN1CCCCC1` (stereo not shown) [4-methyl-5-phenyl-3-(2-piperidinoethyl)-1,3-oxazolidine-2-one], in data set [4], the “neuraxial muscle relaxing effect” value is “extremely weak”. In data set [5], the analgesic effect entry was “has an analgesic effect”, the anti-convulsion effect result is reported as “exerts no anti-convulsion” and the “neuraxial muscle relaxing effect” value is “exerts no anti-convulsion nor neuraxial muscle relaxing effects”.

For the compound `Cc1ccc(C(=O)C(C)CN2CCCCC2)cc1` (stereo not shown) [Comparative compound 1, toluperisone hydrochloride, reference compound], in data set [1], the inhibition in vivo at 3 mg/kg turned out to be 4.8%.

Consider `CC(C)C[C@H]1[C@@H](c2ccccc2)OC(=O)N1CCCN1CCCCC1` [Compound 5, (4S,5R)-4-(2-methylpropyl)-5-phenyl-3-(3-piperidinopropyl)-1,3-oxazolidine-2-one], for which the inhibition in vivo at 3 mg/kg in data set [1] was 37.7%. Further, in data set [2] (setting [8]), the “Blocking rate against glutamic acid” value was 91%. The same compound registered an LD50 in data set [3] of 69 mg/kg.

As to `CC(C)C[C@@H]1[C@H](c2ccccc2)OC(=O)N1CCCN1CCCCC1` [Compound 6, (4R,5S)-4-(2-methylpropyl)-5-phenyl-3-(3-piperidinopropyl)-1,3-oxazolidine-2-one], in data set [1], the inhibition in vivo at 3 mg/kg turned out to be 14.9%.

Consider `CC(C)C[C@H]1[C@H](c2ccccc2)OC(=O)N1CCCN1CCCCC1` [Compound 7, (4S,5S)-4-(2-methylpropyl)-5-phenyl-3-(3-piperidinopropyl)-1,3-oxazolidine-2-one], for which the inhibition in vivo at 3 mg/kg in data set [1] worked out at 64.8%. Moreover, in data set [2] (setting [8]), the “Blocking rate against glutamic acid” value is 92%. This compound also came in with an LD50 in data set [3] of 30.4 mg/kg.

Regarding `CC(C)C[C@@H]1[C@@H](c2ccccc2)OC(=O)N1CCCN1CCCCC1` [Compound 8, (4R,5R)-4-(2-methylpropyl)-5-phenyl-3-(3-piperidinopropyl)-1,3-oxazolidine-2-one], the inhibition in vivo at 3 mg/kg in data set [1] came to 12%.

For `CC(C)C[C@H]1[C@@H](c2ccccc2)OC(=O)N1CCCN1CCCCCC1` [Compound 17, (4S,5R)-4-(2-methylpropyl)-3-[3-(perhydroazepine-1-yl-)propyl]-5-phenyl-1,3-oxazolidine-2-one], the inhibition in vivo at 3 mg/kg in data set [1] was 93%. Moreover, the “Blocking rate against glutamic acid” value in data set [2] (setting [8]) is on record as 90%. In data set [3], this compound came in with an LD50 of 40.1 mg/kg.

Turning to `C/C(=C/C=C/[C@@H](C)C(=O)O)[C@H]1CN[C@H](C(=O)O)[C@H]1CC(=O)O` [domoic acid], the “agonist for glutamic acid” value in data set [6] is given as “extremely strong agonist”. In addition, the “effects induced from administration” value in data set [7] is “dystropy, rigidity, tremor, convulsion and the like are induced”.

As to `N[C@H](C(=O)O)c1cc(=O)[nH]o1` [ibotenic acid], the “agonist for glutamic acid” value in data set [6] is “extremely strong agonist”. Moreover, the “effects induced from administration” value in data set [7] is “dystropy, rigidity, tremor, convulsion and the like are induced”.

On to `C=C(C)[C@H]1CN[C@H](C(=O)O)[C@H]1CC(=O)O` [kainic acid], for which the “agonist for glutamic acid” value in data set [6] is reported as “extremely strong agonist”. Besides, the “effects induced from administration” value in data set [7] is “dystropy, rigidity, tremor, convulsion and the like are induced”.

`N[C@@H](Cn1oc(=O)[nH]c1=O)C(=O)O` [quisqualic acid]: in data set [6], the “agonist for glutamic acid” value is “extremely strong agonist”. Besides, the “effects induced from administration” value in data set [7] was “dystropy, rigidity, tremor, convulsion and the like are induced”.
